Assay type in all cases: functional
A short description of assay [1]: blockers of SFLLRN-triggered platelet ATP secretion – cell-based, human platelets, luminescence, dry powder, dose response (AID 493100).
Assay [2] is described as follows: Luminescence Cell-Based Dose Response Follow up to Identify Inhibitors of Platelet Dense Granule Release. [Related pubchem assays (depositor defined):AID1663, AID1678, AID2398].
In assay [3] the target is T1, Sentrin-specific protease 8 (Homo sapiens, UniProt Q96LD8).
T1 sequence (Q96LD8 whole entry): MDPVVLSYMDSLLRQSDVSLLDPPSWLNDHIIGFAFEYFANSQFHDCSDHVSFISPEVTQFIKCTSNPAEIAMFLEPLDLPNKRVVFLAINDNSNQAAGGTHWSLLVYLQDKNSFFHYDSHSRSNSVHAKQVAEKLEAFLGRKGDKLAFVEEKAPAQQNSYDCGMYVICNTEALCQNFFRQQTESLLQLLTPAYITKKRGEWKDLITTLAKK
Briefly: inhibition of human SENP8 cleavage activity – biochemical, luminescence, SAR follow-up (AID 504501).

In assay [4] the target is T2, Caspase-3 (Homo sapiens, UniProt P42574).
T2 sequence (P42574 whole entry): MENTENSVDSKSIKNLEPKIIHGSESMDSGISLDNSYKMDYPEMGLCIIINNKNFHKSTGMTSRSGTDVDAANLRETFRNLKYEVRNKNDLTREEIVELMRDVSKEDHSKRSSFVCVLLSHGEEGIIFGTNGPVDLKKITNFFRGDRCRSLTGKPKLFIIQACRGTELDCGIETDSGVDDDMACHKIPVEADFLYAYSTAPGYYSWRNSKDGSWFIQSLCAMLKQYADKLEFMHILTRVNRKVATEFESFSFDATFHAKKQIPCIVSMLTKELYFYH
Description: SAR Analysis of small molecule inhibitors of Sentrin-specific proteases (SENPs) using a Caspase-3 Selectivity assay. [Related pubchem assays (depositor defined):AID2540, AID2599, AID434973, AID489001].

The target in assay [5] is T1, Sentrin-specific protease 8. Briefly: inhibition of sentrin protease 8 – biochemical, luminescence, set 2, SAR follow-up (AID 588601).
The target of assay [6] is T3, Sentrin-specific protease 6 (Homo sapiens, UniProt Q9GZR1).
T3 sequence (Q9GZR1 whole entry): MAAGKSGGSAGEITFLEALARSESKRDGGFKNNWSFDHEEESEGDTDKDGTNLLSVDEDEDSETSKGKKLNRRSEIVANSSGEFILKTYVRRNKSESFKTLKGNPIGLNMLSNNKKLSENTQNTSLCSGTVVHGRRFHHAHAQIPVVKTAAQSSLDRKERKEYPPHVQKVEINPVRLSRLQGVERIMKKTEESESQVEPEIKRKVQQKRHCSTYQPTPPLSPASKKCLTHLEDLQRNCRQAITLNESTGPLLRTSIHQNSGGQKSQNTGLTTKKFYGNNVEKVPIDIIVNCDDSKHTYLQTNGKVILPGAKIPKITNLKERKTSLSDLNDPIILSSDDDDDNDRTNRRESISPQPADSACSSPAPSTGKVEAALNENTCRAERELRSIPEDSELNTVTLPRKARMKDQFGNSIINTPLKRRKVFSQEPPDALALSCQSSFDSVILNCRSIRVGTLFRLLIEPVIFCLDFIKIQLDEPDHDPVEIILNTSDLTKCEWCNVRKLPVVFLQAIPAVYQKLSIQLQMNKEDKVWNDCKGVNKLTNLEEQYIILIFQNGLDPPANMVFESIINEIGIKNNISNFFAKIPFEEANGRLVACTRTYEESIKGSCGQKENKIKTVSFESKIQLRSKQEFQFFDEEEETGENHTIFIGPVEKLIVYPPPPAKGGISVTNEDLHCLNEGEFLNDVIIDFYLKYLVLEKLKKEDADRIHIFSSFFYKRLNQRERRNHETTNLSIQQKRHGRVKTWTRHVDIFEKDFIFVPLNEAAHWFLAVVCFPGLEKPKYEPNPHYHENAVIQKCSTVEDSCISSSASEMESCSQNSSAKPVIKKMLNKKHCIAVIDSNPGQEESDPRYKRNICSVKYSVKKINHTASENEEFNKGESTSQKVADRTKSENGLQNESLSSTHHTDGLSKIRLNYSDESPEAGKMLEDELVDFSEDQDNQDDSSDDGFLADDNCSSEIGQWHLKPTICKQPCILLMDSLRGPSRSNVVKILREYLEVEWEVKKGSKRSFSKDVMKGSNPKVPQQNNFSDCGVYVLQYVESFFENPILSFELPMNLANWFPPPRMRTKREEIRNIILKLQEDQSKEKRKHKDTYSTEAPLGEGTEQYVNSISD
Description: SAR Analysis of small molecule inhibitors of Sentrin-specific protease 6 (SENP6) using a Luminescent assay. [Related pubchem assays (depositor defined):AID2582, AID2599].

Assay [7] has as its target T4, Sentrin-specific protease 7 (Homo sapiens, UniProt Q9BQF6).
T4 sequence (Q9BQF6 whole entry): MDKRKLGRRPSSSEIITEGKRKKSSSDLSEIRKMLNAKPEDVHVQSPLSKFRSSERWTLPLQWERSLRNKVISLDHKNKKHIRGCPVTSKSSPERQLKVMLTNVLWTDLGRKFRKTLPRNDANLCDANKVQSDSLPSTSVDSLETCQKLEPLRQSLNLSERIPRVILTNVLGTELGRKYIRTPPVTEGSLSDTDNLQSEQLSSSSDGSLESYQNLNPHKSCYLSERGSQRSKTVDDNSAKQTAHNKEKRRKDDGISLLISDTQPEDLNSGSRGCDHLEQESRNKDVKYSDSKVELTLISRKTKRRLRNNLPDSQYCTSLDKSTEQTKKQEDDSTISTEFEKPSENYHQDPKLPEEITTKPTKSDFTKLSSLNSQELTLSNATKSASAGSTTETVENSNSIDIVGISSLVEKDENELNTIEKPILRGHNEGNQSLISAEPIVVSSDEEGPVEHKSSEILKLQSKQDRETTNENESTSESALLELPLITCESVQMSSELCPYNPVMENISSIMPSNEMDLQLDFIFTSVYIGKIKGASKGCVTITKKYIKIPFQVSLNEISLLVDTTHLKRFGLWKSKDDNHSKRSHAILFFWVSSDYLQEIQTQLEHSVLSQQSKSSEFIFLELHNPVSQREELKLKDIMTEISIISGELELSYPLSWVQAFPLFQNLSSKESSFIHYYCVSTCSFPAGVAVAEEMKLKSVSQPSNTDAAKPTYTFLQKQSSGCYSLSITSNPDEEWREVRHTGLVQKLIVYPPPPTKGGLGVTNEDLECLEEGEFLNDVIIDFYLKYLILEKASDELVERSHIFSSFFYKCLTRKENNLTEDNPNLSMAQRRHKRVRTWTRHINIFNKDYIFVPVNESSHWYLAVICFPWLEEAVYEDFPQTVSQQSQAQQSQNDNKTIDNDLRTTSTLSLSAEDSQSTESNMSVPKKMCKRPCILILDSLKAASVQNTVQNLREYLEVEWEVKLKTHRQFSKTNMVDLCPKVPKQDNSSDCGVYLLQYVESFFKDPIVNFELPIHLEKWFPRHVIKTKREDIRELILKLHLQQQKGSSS
Briefly: inhibition of human SENP7 cleavage activity – biochemical, luminescence, set 2, SAR follow-up (AID 588600).

Assay [8] addresses T2, Caspase-3. Briefly: inhibition of recombinant caspase-3 activity – biochemical, luminescence, set 2, selectivity assay for SENP protease inhibitor project, SAR follow-up (AID 588599).
Assay [9] addresses T4, Sentrin-specific protease 7. Briefly: inhibition of human SENP7 cleavage activity – biochemical, luminescence, SAR follow-up (AID 504497).
In assay [10] the target is T3, Sentrin-specific protease 6. Briefly: inhibition of human SENP6 catalytic domain – biochemical, luminescence, set 2, SAR follow-up (AID 588598).

Activity calls are given as the source filed them. Rule as the data show it, for most assays here: actives have a measured IC50 and inactives only a lower limit.

Among the data in ChEMBL document CHEMBL1201862, “PubChem BioAssay data set” (2004) are AC50, EC50 and IC50 values, retold here.

By AC50 is commonly meant the concentration at which the activity in the assay is half-maximal. For orientation: EC50 means the concentration that produces a half-maximal response. A word on the IC50: it is the concentration that gives 50% inhibition.

For `CCCCC(=O)N/N=C(\C)c1ccc(NC(=O)C(F)(F)F)cc1`, in [1], the AC50 was 41.3 µM (active). The EC50 in assay [2] was 5.49 µM (active).
For `COc1cc(/C=C/c2noc(-c3ccccc3O)n2)ccc1OCC(=O)O`, the IC50 is > 99 µM (inactive) in [3]; 54 µM (active) at Caspase-3 [4]; 46.3 µM (active) in assay [5]; > 99 µM (inactive) in assay [6]; 72.3 µM (active) in [7]; 28.2 µM (active) at Caspase-3 [8]. Further, the IC50 in assay [9] is 18 µM (active); in assay [10], 21.9 µM (active).
